2 compounds from patent publication US7109175B1, “Specific steady-state R-type CA2+ channel blockers and use thereof” (Universite de Sherbrooke, priority 2000, dated 2006) can be followed below.

For assay [1], the system named is human aortic vascular smooth muscle cell line. The assay is described as follows: Spontaneous proliferation of human aortic vascular smooth muscle cell line. To be noted: 10^−8M. The format is cell-based.
Assay [2] relates to R-type Ca^2+ channel. Kind of assay: Confocal Fluo-3 3-dimension measurement of [Ca]c and [Ca]n, chick heart cells and human aortic VSM cell line. To be noted: for sustained increase of [Ca]c and [Ca]n induced by high PAF: PAF 10^−7M; for sustained depolarization induced sustained increase of [Ca]c and [Ca]n: heart cells, FIG. 29 panel A; for prevention of sustained increase of [Ca]c and [Ca]n: chick heart cells and human aortic VSM cell line. The format is cell-based.

The subject of another assay is L-type Ca^2+ current. The assay is described as follows: Whole-cell voltage clamp, L-type Ca2+ current in heart cells of chick embryos. To be noted: for overall effect on L-type Ca2+ channel: summary in words. Type of assay: cell-based. The procedure:
(§1) Single cells of different types in culture were prepared from biopsies of human, chick and rabbit. Known and accepted methods for the isolation of fast Na^+ current, T, L and R-type Ca^2+ channels as well as delayed outward K^+ current were used (Bkaily 1994, supra).
(§2) The compounds to be tested are added to the appropriate extracellular solution after recording a stable ionic current or normal steady-state level of […]. The effect of different concentrations of compounds are tested on the different type of current and [Ca]i of the different cell types. The effect of each concentration of the compounds in function of the time of exposure are then determined. Once the steady-state effect is reached, the second concentration is added, etc.
In another series of experiments (n=5), the effect of different concentrations of MV8608 (10^−11 to 10^−6M) were tested on the L-type ICa of heart cells of chick embryos using the whole-cell and experimental conditions and protocols described elsewhere by the inventors (Bkaily G. et al., 1993, supra). As for the T-type ICa, the L-type ICa was not affected by 10^−11 to 10^−10M MV8608.
In another series of experiments (n=4), we tested the effect of MV8612 on the L-type Ca^2+ current (ICa) in chick embryonic heart cells using the whole-cell voltage clamp technique referred to above. Superfusion with 10^−9M of MV8612 decreased ICa amplitude by 10% and increasing the concentration of the compound up to 10^−8M further decreased the current amplitude by 25%. Higher concentration of MV8612 (10^−7M) decreased the ICa amplitude by 62%.

For assay [3], the system named is human lymphocyte proliferation. Kind of assay: Human lymphocyte proliferation in vitro. Type of assay: cell-based. Particulars: for inhibition of human lymphocyte proliferation: MV 8612 0.02 to 0.32 M, MV 8608 14.5 to 116 M. The procedure: In a separate series of experiments, compounds MV 8612 and MV 8608 were tested to analyze whether they interfered with human lymphocyte proliferation “in vitro”. These experiments were carried out as reported previously (Moraes et al., 1996, Eur. J. Pharmacol. 312:333–339).

Assay [4] deals with TTX-sensitive fast Na^+ current. The assay is described as follows: Whole-cell voltage clamp, TTX-sensitive fast Na+ current in heart cells. The format is cell-based, chick. On the procedure: as §1, §2
In one series of experiments (n=5), the effect of different concentrations of MV8608 (10^−11M to 10^−7M) on the TTX-sensitive fast Na^+ current were tested using the whole-cell voltage clamp technique and experimental conditions reported elsewhere (Bkaily et al., 1988, supra; 1993, supra).
In a series of experiments (n=5), we tested the effect of another MV compound MV8612 on the TTX-sensitive fast Na^+ current (INa) of embryonic chick heart cells using the whole-cell voltage clamp technique described above.

For assay [5], the system named is R-type Ca^2+ channel. The assay is described as follows: Fura-2 [Ca]i, human aortic vascular smooth muscle cells (cell line and freshly isolated). Type of assay: cell-based. To be noted: for sustained increase of [Ca]i induced by high PAF: PAF 10^−7M. The text has this: This sustained increase of Ca^2+ induced by depolarization of the cell membrane or hormones such as PAF, ET-1 and bradykinin is due to the increase of Ca^2+ influx through the R-type Ca^2+ channels at the sarcolemmal membrane and/or the nuclear membrane (Bkaily G., 1994, supra; 1996, supra; 1997a–d, supra). Using Ca^2+ fluorescence probes Fura-2 or Fluo-3 and 2 and three-dimension Ca^2+ imaging techniques (Bkaily G., 1994, supra; 1996, supra; 1997a–d, supra), the effect of hormones and drugs could be easily tested. These two methods are used with single cells of different types as described above.
In another series of experiments we tested the effect of MV8608 (10^−9M) on R-type Ca^2+ channels stimulation-induced sustained increase of total intracellular Ca^2+ by sustained depolarization (FIGS. 15 to 19), by PAF (10^−9M) (FIGS. 16 to 19 and 21 to 22), by ET-1 (10^−9M) (FIGS. 16 and 19) and bradykinin (BK, 10^−6M) (FIGS. 20 and 21), in embryonic chick heart cells (FIGS. 15, 16, 19 and 20), 19-week-old human fetal heart cells (FIGS. 15, 17, 18 and 20), rabbit aortic vascular smooth muscle (VSM) cells (FIGS. 20 and 21), human aortic VSM cell-line (FIG. 23) and freshly isolated (FIG. 22) as well as in freshly isolated aortic endothelial cells (FIG. 22).
In some experiments, the stimulation of the R-type Ca^2+ channel was elevated by increasing the concentration of PAF from 10^−9M up to 10^−7. […] Only a concentration of 10^−6M of MV8608 was able to block the high PAF effect on the sustained increase of [Ca]i (FIG. 23).
Using Fura-2 [Ca]i measurement technique, in one series of experiments we tested the effect of MV8612 (10^−9M) on the stimulation of R-type Ca^2+-induced sustained increase of [Ca]i by sustained depolarization (FIGS. 26 and 27), PAF (10^−9M, FIG. 34) and ET-1 (FIGS. 33 and 34).

[6] abbreviates: sustained depolarization and PAF 10^−7M.

SMILES strings stand for the structures. “Also recorded” adds a separate entry of the source.

Turning to `C[C@]12CC[C@H](O)CC1=CC[C@@H]1[C@@H]2CC[C@]2(C)[C@H]3[C@@H]4OC[C@H]3O[C@@H](O)[C@]12O4` [MV8608, (15R, 16R, 20S)-14, 16:15,20:16,21-triepoxi-15,16-seco 14β, 17α-pregn-5-ene-3β, 15-diol], the spontaneous proliferation entry in assay [1] is “significantly decreased”. Moreover, the “cytosolic and nuclear Ca2+ sustained overload” value with R-type Ca^2+ channel [2] (10^−7M, KCl 30 mM and PAF, nifedipine present) is “blocked both the cytosolic and nuclear Ca^2+ sustained overload”. For the same compound, the “prevention of depolarization-induced stimulation of R-type channel ([Ca]c, [Ca]n)” value in the assay on R-type Ca^2+ channel [2] (10^−8 M and 10^−7 M) is “prevented the stimulation of the R-type Ca^2+ channel”. For the same compound, the “prevention of high PAF action” value with R-type Ca^2+ channel [2] (PAF 10^−7 M, 10^−9M) is recorded as “succeeded in preventing the high PAF action”. In addition, in the assay on R-type Ca^2+ channel [2] (MV8608 10^−6M), the “sustained increase of [Ca]c and [Ca]n induced by high PAF” value was “significantly decrease; also recorded: blocked”. The “sustained depolarization induced sustained increase of [Ca]c and [Ca]n” value in the assay on R-type Ca^2+ channel [2] was “blocked completely”. The “prevention of sustained increase of [Ca]c and [Ca]n” value with R-type Ca^2+ channel [2] (setting [6]) is given as “preventive effect”. Moreover, the “change of L-type ICa amplitude effect at higher concentration” value in the assay on L-type Ca^2+ current (5×10^−7M) is recorded as “further slight increase”. Moreover, in the assay with L-type Ca^2+ current (10^−9M), the “decrease of L-type ICa amplitude” value was 10%. For the same compound, in the assay with L-type Ca^2+ current (10^−11 to 10^−10M), the “effect on L-type ICa” value is recorded as “not affected”. Besides, the “overall effect on L-type Ca2+ channel” value in the assay on L-type Ca^2+ current is listed as “very weak depressor; also recorded: relative weak depressing effect”. The “inhibition of human lymphocyte proliferation” value in assay [3] is “graded inhibition”. Further, in assay [4] (10^−11M to 10^−7M, single heart cell, n=5), the “effect on TTX-sensitive fast Na+ current” value is “no effect; also recorded: absence of the effect”. For the same compound, the “PAF induced sustained increase of [Ca]i” value with R-type Ca^2+ channel [5] (10^−9M, PAF 10^−9M, freshly isolated human aortic VSM cells) was “blockade”. In addition, the “sustained increase of [Ca]i induced by high PAF” value with R-type Ca^2+ channel [5] (MV8608 10^−6M, human aortic VSM cell line) is reported as “able to block; also recorded: blockade”; in the assay with R-type Ca^2+ channel [5] (MV8608 10^−9M), “failed to significantly decrease”.

As for `COC1CC(OC2C(C)OC(O[C@H]3CC[C@@]4(C)C(=CC[C@@H]5[C@@H]4CC[C@]4(C)[C@H]6[C@@H]7OC[C@H]6O[C@@H](O)[C@]54O7)C3)CC2OC)OC(C)C1OC1CC(OC)C(OC2CC(OC)C(OC3OC(C)C(OC(C)=O)C(OC)C3OC(C)=O)C(C)O2)C(C)O1` (some centres unmarked) [MV8612], in assay [1], the spontaneous proliferation entry was “significantly decreased”. The “sustained increase of [Ca]c and [Ca]n induced by high PAF” value with R-type Ca^2+ channel [2] (MV8612 10^−8M) is recorded as “blocked”. In addition, in the assay with R-type Ca^2+ channel [2], the “sustained depolarization induced sustained increase of [Ca]c and [Ca]n” value was “blocked completely”. Further, in the assay with R-type Ca^2+ channel [2] (setting [6]), the “potency of blocking sustained increase of [Ca]c and [Ca]n, comparison” value is “more potent blocker than MV8608”; the “potency of preventing stimulation of R-type channel, comparison” value is “equipotent in preventing”; the “prevention of sustained increase of [Ca]c and [Ca]n” value is given as “preventive effect”. Moreover, the “decrease of L-type ICa amplitude” value in the assay with L-type Ca^2+ current (10^−7M) is listed as 62%. Moreover, the “decrease of L-type ICa amplitude” value in the assay on L-type Ca^2+ current (10^−8M) came to 25%. The “decrease of L-type ICa amplitude” value with L-type Ca^2+ current (10^−9M) came out at 10%. Also, in the assay with L-type Ca^2+ current, the “overall effect on L-type Ca2+ channel” value is reported as “more potent L-type Ca^2+ channel antagonist properties than that of MV8608”. Further, the “inhibition of human lymphocyte proliferation” value in assay [3] is given as “graded inhibition”. The “potency ratio MV 8612 versus MV 8608, lymphocyte proliferation” value in assay [3] (more potent) is listed as “about 570 fold”. The “further decrease of INa amplitude” value in assay [4] (10^−7M, embryonic chick heart cells) is reported as “no further decrease”. The “decrease of INa amplitude” value in assay [4] (10^−8M, embryonic chick heart cells) turned out to be 15%. Moreover, the “effect on fast Na+ current” value in assay [4] (10^−9M, embryonic chick heart cells) is “had no effect”. The “prevention of sustained increase of [Ca]i” value in the assay with R-type Ca^2+ channel [5] (10^−8M, KCl 30 mM and PAF 10^−7M, human aortic VSM cell line) is “found to prevent; also recorded: preventive effect”.
